The subject of the assay is LPS-induced release of endogenous TNFα from human macrophages from healthy donors. The assay is described as follows: ELISA-based TNFα release assay, LPS-induced, human macrophages from healthy donors. The assay is classed as cell-based. The following applies: Macrophage, LPS 5 ng/ml, 2 hours, recombinant murine antibodies at 10 μg/ml, Batimastat at 10 μM. On the procedure: To obtain human macrophages, peripheral blood mononuclear cells (PBMCs) from 4 healthy donors were used. Cells from 5 ml human blood were resuspended in 20 ml of DMEM medium (Corning, USA) supplemented with 10% FCS (Atlanta Biological, USA) and Penicillin/Streptomycin (Corning, USA) (DMEM/FCS) and were then incubated on two 10 cm petri dishes (Thermo Fisher, USA) at 37° C., 5% CO2 for 3h. Non-adherent cells were subsequently removed and 6 ml of DMEM/FCS supplemented with 10 ng/ml human MCSF (Peprotech, USA) (DMEM/FCS/MCSF) was added per plate. Both plates were incubated at 37° C., 5% CO2 for 2 days, then 2 ml of DMEM/FCS/MCSF was added to each plate on day 2 and 4. On day 5, all medium was removed and attached cells were washed once with 5 ml PBS (Corning, USA). 2 ml of Accutase (Promocell, USA) solution was added to each plate and incubated at 37° C. for 15 min. 10 ml of DMEM/FCS was added to each plate and detached cells were collected in a 15 ml Falcon tube. Cells were subsequently pelleted in a tabletop centrifuge (Eppendorf, USA) at 1,500 rpm for 5 min. The medium was removed and the cells were resuspended in 2 ml of DMEM/FCS. 10 μl from this cell suspension was manually counted in a hemocytometer (Thermo Fisher, USA). […]
(In general: ELISA stands for enzyme-linked immunosorbent assay.)

In general, inhibition refers to the change of the read-out against control, counted positive when it falls. For the molecule `CNC(=O)[C@H](Cc1ccccc1)NC(=O)[C@H](CC(C)C)[C@H](CSc1cccs1)C(=O)NO` [Batimastat], the inhibition at 10 µM amounted to 68.3%.

The values are drawn from US20240287172A1, “PROTEIN BINDERS TO IRHOM2 EPITOPES” (SCIRHOM GMBH, priority 2019, published 2024).
